According to patent US20110256241A1, “METHODS AND COMPOSITIONS FOR THE TREATMENT OF CANCER” (TRASLATIONAL CANCER DRUGS PHARMA, S.L., priority 2008, published 2011):

Columns and labels:
[1] = test system: DR5 (TNFRSF10B or TRAIL-R2) in SW620 cell line; assay: DR5 levels by quantitative PCR; assay type: cell-based, human
Procedure: (§1) 1 μg of RNA was used to generate cDNA using High-Capacity cDNA Archive Kit (Applied Biosystems), and quantitative real-time PCR was carried out in triplicate using the ABI PRISM 7700 Sequence Detector (Applied Biosystems). GAPDH and 18S ribosomal mRNA were amplified as internal controls. Probes used for amplification were from Applied Biosystems as Taqman Gene Expression Assays (ASAH1: HS00602774—M1 Taqman Probe, ASAH2: HS00184096_M1 Taqman Probe and ASAH3: HS00370322_M1 Taqman Probe, DUT: HS00798995_S1 Taqman Probe, TYMS: HS00426591_M1 Taqman Probe, UPP1: HS00427695—M1 Taqman Probe, RRM2: HS00357247_G1 Taqman Probe). The 2-^ΔΔCt method was used (Livak K J., Methods. 2001; 25:402-8) to calculate the relative expression of each gene.
(§2) TRAIL is a member of the tumour necrosis factor (TNF) superfamily and can induce apoptosis by the extrinsic pathway associated via stimulation of death receptors DR4 (TNFRSF10A or TRAIL-R1) and DR5 (TNFRSF10B or TRAIL-R2). In order to determine the mechanism of the effectivity of the combined therapy of TRAIL and ChoK inhibitors, DR5 and DR4 levels were analysed by quantitative PCR in DLD-1 and SW620 cell lines after treatments with MN58b, TRAIL or their simultaneous combination.

[2] = test system: DR5 (TNFRSF10B or TRAIL-R2) in DLD-1 cell line; assay: DR5 levels by quantitative PCR; assay type: cell-based, human
Procedure: as §1, §2

[3] = test system: H460 xenografts; assay: NSCLC xenografts, in vivo tumor growth inhibition; conditions: FIG. 7A, single agents
Procedure: Indicated cells were resuspended in DMEM just before inoculation (10^6 cells/0.1 ml), and injected subcutaneously in nu/nu immunosuppressed mice. Mice were kept under standard laboratory conditions according to the guidelines of the Spanish Government. When tumours reached a mean volume of 0.1 cm^3, mice were randomized to control and treated groups. Treatments with the antitumoral agents (and vehicle for control mice) were performed i.p. with following the indicated schedules. Tumors were monitored three times a week by measuring the major (D) and minor (d) diameters, and tumour volume was calculated by V=(D*d^2)/2. Statistical analysis of significant changes in tumour growth was calculated using SPSS software v. 13.0.

[4] = test system: primary cultures of tumours of patients with NSCLC; assay: Primary cultures of NSCLC tumours, crystal violet quantification; assay type: cell-based, human; conditions: primary NSCLC tumour cultures, 0-20 μM, 10 days
Procedure: Resected tissues from NSCLC patients were dissociated (Cell dissociation sieve-tissued grinder Kit CD1, SIGMA), and the obtained cells were seeded in 24 well plates (BD, Falcon, Bioscience, San Jose, Calif., USA). […] The final persistent population in each well was quantified by the method of Cristal Violet as previously described (Rodríguez-González, A. et al., Oncogene, 22:8803-8812). […]

[5] = test system: Primary BEC (human primary bronchial epithelial cells); assay: Cell proliferation assay (MTT); assay type: cell-based; conditions: 48 h, inhibitor and unit not printed in table (MN58b, μM), read-out: IC50 48 h
Procedure: (§3) All cell lines used in this study were maintained under standard conditions of temperature (37° C.), humidity (95%), and carbon dioxide (5%). Human primary bronchial epithelial cells, NHBE (BEC) (Cambrex, CC-2541) were grown in BEGM (Bronchial Epithelial cell growth media) BulletKit (Cambrex, CC-3170). Human primary mammary epithelial cells, HMEC (Clonetics, CC-2551) were grown in MEBM medium supplemented with a bullet kit (Clonetics, CC-3150). Epithelial non-small lung cancer cells H460 and H1299, and small cell lung cancer cell lines H510 and H82 were maintained in RPMI supplemented with 10% Fetal Bovine Serum (FBS) (Life Technologies, Grand Island, N.Y.).
(§4) Cells were seeded on 96-well plates (BD, Falcon, Bioscience, San Jose, Calif., USA) at a density of 6000 cells/well, and incubated for 24 h under standard conditions. […] Absorbance is read at 595 nm in a VersaMax Microplate Reader (Molecular Devices, Sunnyvale, Calif., USA). For sensitization with acid ceramidase inhibitor, cells were pre-treated 4 hours with the correspondent IC50 for NOE before treatment with ChoK inhibitors. NOE (N-Oleoyl ethanolamine) was obtained from Calbiochem (La Jolla, Calif., USA).

[6] = test system: H460 cells; assay: Affymetrix gene expression analysis of 5-FU metabolization pathway; assay type: cell-based, human; design: key to RRM2 (Ribonucleotide Reductase) gene expression / TYMS (Thymidylate synthetase) gene expression / DUT (Deoxyuridine triphosphatase) gene expression: Signal Log Ratio, base 2 (1.0 = 2-fold increase, 0 = no change)
Procedure: The RNAs from the biopsies selected were isolated for microarrays and QT-PCR, using RNeasy Mini Kit (QIAGEN, Hilden, Germany) following the instructions of the manufactures. Samples were prepared and the array hybridized according to the Affymetrix GeneChip Expression Analysis Technical Manual. Hybridization to Affymetrix U133plus2 GeneChips (54,614 probe sets, representing 47,000 transcripts), staining, washing and scanning procedures were carried out at the Genomic Facility in the National Center of Biotechnology (Madrid, Spain) as described in www.affymetrix.com (Affymetrix, Santa Clara, Calif.). The Signal Log Ratio estimates the magnitude and direction of change of a transcript. The log scale used is base 2, thus a Signal Log Ratio of 1.0 indicates an increase of the transcript level by 2 fold and −1.0 indicates a decrease by 2 fold. A Signal Log Ratio of zero would indicate no change.
With the aim of further investigating the mechanism of ChoKIs sensitization to the antitumoral effect of 5-FU, a gene expression analysis of the 5-FU-metabolisation pathway was performed in H460 cells treated at different times with MN58b and RSM-932A using affymetrix technology.

[7] = test system: H510 cells; assay: Cell proliferation assay (MTT); assay type: cell-based, human
Procedure: as §3, §4

[8] = test system: H1299 cells; assay: Cell proliferation assay (MTT); assay type: cell-based, human
Procedure: as §3, §4

[9] = test system: H82 cells; assay: Cell proliferation assay (MTT); assay type: cell-based, human
Procedure: as §3, §4

For CN(C)c1cc[n+](Cc2ccc(CCCCc3ccc(C[n+]4ccc(N(C)C)cc4)cc3)cc2)cc1 [MN58b, 1,4-(4-4′-Bis-((4-(dimethylamine)pyridinium-1-yl)methyl)diphenyl)butane dibromide], the “increase in DR5 levels” value [1] was 2 fold, the “increase in DR5 levels” value [2] was 1.6 fold and the “Statistical significance (p), tumour growth” value [3] was 0.09. The “RESISTANT (number of samples)” value [4] was 28, the “SENSITIVES (number of samples)” value [4] was 35 and the IC 50 [5] was 40.5 ± 6.2 µM. The “DUT (Deoxyuridine triphosphatase) gene expression” value ([6]; H460, 9 h) was −1.17, the “RRM2 (Ribonucleotide Reductase) gene expression” value ([6]; H460, 9 h) was −1.48 and the “TYMS (Thymidylate synthetase) gene expression” value ([6]; H460, 9 h) was −1.30. The “UPP1 (Uridine phosphorylase 1) gene expression” value ([6]; H460, 9 h) was “+1.54”, the “DUT (Deoxyuridine triphosphatase) gene expression” value ([6]; H460, 24 h) was −2.03 and the “RRM2 (Ribonucleotide Reductase) gene expression” value ([6]; H460, 24 h) was −2.50. The “TYMS (Thymidylate synthetase) gene expression” value ([6]; H460, 24 h) was −2.39, the “UPP1 (Uridine phosphorylase 1) gene expression” value ([6]; H460, 24 h) was “+1.76” and the “figure in parentheses after IC50 48 h (not defined; fold vs primary cells)” value [7] was 41. The “figure in parentheses after IC50 72 h (not defined; fold vs primary cells)” value [7] was 53, the “figure in parentheses after IC50 144 h (not defined; fold vs primary cells)” value [7] was 27 and the “figure in parentheses after IC50 48 h (not defined; fold vs primary cells)” value [8] was 4. The “figure in parentheses after IC50 72 h (not defined; fold vs primary cells)” value [8] was 8, the “figure in parentheses after IC50 144 h (not defined; fold vs primary cells)” value [8] was 4 and the “figure in parentheses after IC50 48 h (not defined; fold vs primary cells)” value [9] was 24. For the same molecule, the “figure in parentheses after IC50 72 h (not defined; fold vs primary cells)” value [9] was 27 and the “figure in parentheses after IC50 144 h (not defined; fold vs primary cells)” value [9] was 12.
